In paper PMC9241644, “Evaluation of Novel Quorum Sensing Inhibitors Targeting Auto-Inducer 2 (AI-2) for the Control of Avian Pathogenic Escherichia coli Infections in Chickens” (Microbiology Spectrum, 2022):

Assay: QSI-5 and SDM residue quantification in muscle, kidney and liver (LC-MS)
Type: in vivo, chickens
Description: The safety of QSI-5 and SDM was assessed by measuring the level of drug residue in the muscle, kidney, and liver using LC-MS (CCIC, MS&P Facility, OSU) as described before ([34]). As described above, chickens were administered with the optimized dose of QSI-5 (1 mg/L) and the therapeutic dose of SDM (495.323 mg/L) (0.05%) in drinking water daily for 7 days (starting from day 5 to day 11 of age). Tissue samples were collected individually from chickens treated with QSI-5 and SDM (five chickens per group) from experimental set up as described for floor trial at 2 DPLT, 5 DPLT, and […] (slaughter age). All samples were weighed and extracted at a 400 mg/mL ratio of tissue in the extraction solution (50:50 H2O: ACN). Samples were homogenized using a probe sonicator 20 times and centrifuged at 13,000 × g for 30 min. Sixty μL of the supernatant was transferred into glass vials and dried in a SpeedVac for 1.5 h, and then resuspended in 120 μL of 25:25:50 H2O:ACN:MeOH. Standard calibration, LC system, mass spectrometer, and drug target monitoring were performed as described above. Calibration standard curves for measuring the accumulation of QSI-5 and SDM in the kidney, liver, and muscle are shown in Fig. S6A and S6B.

Cc1ccc(CN2CCN(CCCc3ccccc3)CC2)cc1 [QSI-5]
0.0 ± 0.0 ppm: Drug accumulation, Kidney (ppm± SD) (2 DPLT) | Drug accumulation, Liver (ppm± SD) (2 DPLT) | Drug accumulation, Muscle (ppm± SD) (2 DPLT, drinking water 7 days (QSI-5 1 mg/L, SDM 495.323 mg/L)) | Drug accumulation, Kidney (ppm± SD) (5 DPLT) | Drug accumulation, Liver (ppm± SD) (5 DPLT) | Drug accumulation, Muscle (ppm± SD) (5 DPLT) | Drug accumulation, Kidney (ppm± SD) (35 DPLT (slaughter age)) | Drug accumulation, Liver (ppm± SD) (35 DPLT (slaughter age)) | Drug accumulation, Muscle (ppm± SD) (35 DPLT (slaughter age))
